The source of these data is PubChem BioAssay AID248 (DTP/NCI, 2004).

“And” between values parts separate entries of the source, which are not always exact repeats. Identical values can stand only once. Inconclusive results and toxic doses are left out.

In the assay the test system is L1210 leukemia ip in BDF1 mice, survival T/C. In words: NCI In Vivo Anticancer Drug Screen. Data for tumor model L1210 Leukemia (intraperitoneal) in B6D2F1 (BDF1) mice. To be noted: endpoint: mean survival time, higher = longer survival. The method, boiled down: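 Ratio derived from survival: compound-dosed mice over vehicle-dosed mice, all bearing a transplantable tumor.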

Setting [1] is: dose: 100.0 mg/kg/injection, schedule: Q01DX001 (ip), vehicle: saline.
Setting [2] is: dose: 200.0 mg/kg/injection, schedule: Q01DX001 (ip), vehicle: saline.
The mark [3] stands for this setting: dose: 400.0 mg/kg/injection, schedule: Q01DX001 (ip), vehicle: saline.
Setting [4] is: dose: 50.0 mg/kg/injection, schedule: Q01DX001 (ip), vehicle: carboxymethylcellulose (CMC).
Setting [5] is: dose: 100.0 mg/kg/injection, schedule: Q01DX001 (ip), vehicle: carboxymethylcellulose (CMC).
[6] abbreviates: dose: 200.0 mg/kg/injection, schedule: Q01DX001 (ip), vehicle: carboxymethylcellulose (CMC).
Where [7] appears, read: dose: 100.0 mg/kg/injection, schedule: Q01DX001 (ip), vehicle: saline with Tween-80.
Where [8] appears, read: dose: 100.0 mg/kg/injection, schedule: Q04DX003 (ip), vehicle: saline with Tween-80.
Setting [9] is: dose: 200.0 mg/kg/injection, schedule: Q01DX001 (ip), vehicle: saline with Tween-80.
The mark [10] stands for this setting: dose: 25.0 mg/kg/injection, schedule: Q01DX001 (ip), vehicle: Klucel (hydroxypropylcellulose) (HPC).
[11] abbreviates: dose: 50.0 mg/kg/injection, schedule: Q01DX001 (ip), vehicle: Klucel (hydroxypropylcellulose) (HPC).
Setting [12] is: dose: 100.0 mg/kg/injection, schedule: Q04DX003 (ip), vehicle: saline.
Where [13] appears, read: dose: 25.0 mg/kg/injection, schedule: Q04DX003 (ip), vehicle: saline with Tween-80.
[14] abbreviates: dose: 50.0 mg/kg/injection, schedule: Q04DX003 (ip), vehicle: saline with Tween-80.
[15] abbreviates: dose: 50.0 mg/kg/injection, schedule: Q01DX009 (ip), vehicle: saline with Tween-80.

In the case of `CCC1NC(C(=O)O)CS1` (stereo not drawn), the T/C by setting is: under setting [1], 96 % of control; under setting [2], 100 % of control; under setting [3], 89 % of control.

In the case of `COc1ccc(OC)c(C(=O)CCC(=O)O)c1`, the T/C is 94 % of control under setting [4]; 110 % of control under setting [5]; 100 % of control under setting [6]; 107 % of control (dose: 400.0 mg/kg/injection, schedule: Q01DX001 (ip), vehicle: carboxymethylcellulose (CMC)).

With `COc1cc(C(=O)c2cocc2C(=O)c2ccc3c(c2)OCO3)cc(OC)c1OC`, the T/C runs as follows: (dose: 50.0 mg/kg/injection, schedule: Q01DX009 (ip), vehicle: acetone) 110 % of control; (dose: 100.0 mg/kg/injection, schedule: Q01DX009 (ip), vehicle: acetone) 94 % of control; (dose: 200.0 mg/kg/injection, schedule: Q01DX009 (ip), vehicle: acetone) 112 % of control; (dose: 400.0 mg/kg/injection, schedule: Q01DX009 (ip), vehicle: acetone) 110 % of control.

Regarding `C#CC1(OC(=O)NS(=O)(=O)c2ccc(C)cc2)CCCCC1`, the T/C reads like this: under setting [7], 97 % of control; under setting [8], 103 % of control; under setting [9], 101 % of control; (dose: 200.0 mg/kg/injection, schedule: Q04DX003 (ip), vehicle: saline with Tween-80) 95 % of control; (dose: 400.0 mg/kg/injection, schedule: Q01DX001 (ip), vehicle: saline with Tween-80) 103 % of control; (dose: 400.0 mg/kg/injection, schedule: Q04DX003 (ip), vehicle: saline with Tween-80) 101 % of control.

For the molecule `C(CC1CC1)OCOCCC1CC1`, the T/C is, setting by setting: under setting [7], 93 % of control; under setting [9], 97 % of control.

As for `NNC(=O)CNc1ccccc1F`, the T/C reads like this: (dose: 25.0 mg/kg/injection, schedule: Q04DX002 (ip), vehicle: Klucel (hydroxypropylcellulose) (HPC)) 113 % of control; (dose: 50.0 mg/kg/injection, schedule: Q04DX002 (ip), vehicle: Klucel (hydroxypropylcellulose) (HPC)) 102 % of control; (dose: 100.0 mg/kg/injection, schedule: Q04DX002 (ip), vehicle: Klucel (hydroxypropylcellulose) (HPC)) 102 % of control and 105 % of control.

Turning to `C=CCCc1c(N)nc(N)[nH]c1=O`, the T/C reads like this: under setting [10], 100 % of control; under setting [11], 100 % of control; (dose: 100.0 mg/kg/injection, schedule: Q01DX001 (ip), vehicle: Klucel (hydroxypropylcellulose) (HPC)) 96 % of control.

On to `c1cncc(SC23CC4CC(CC(C4)C2)C3)c1`, for which the T/C (dose: 100.0 mg/kg/injection, schedule: Q01DX009 (ip), vehicle: Klucel (hydroxypropylcellulose) (HPC)) is 106 % of control; the T/C (dose: 200.0 mg/kg/injection, schedule: Q01DX009 (ip), vehicle: Klucel (hydroxypropylcellulose) (HPC)) is 93 % of control; the T/C (dose: 400.0 mg/kg/injection, schedule: Q01DX009 (ip), vehicle: Klucel (hydroxypropylcellulose) (HPC)) was 106 % of control.

On to `CN(C)C(=O)C1C2C=CC(CC2)C1C(=O)N(C)C` (stereo not drawn), for which the T/C is 96 % of control under setting [12]; 96 % of control (dose: 200.0 mg/kg/injection, schedule: Q04DX003 (ip), vehicle: saline); 96 % of control (dose: 400.0 mg/kg/injection, schedule: Q04DX003 (ip), vehicle: saline).

As for `C=CC[As](=O)(O)O`, the T/C is 98 % of control under setting [13], 104 % of control under setting [14] and 92 % of control under setting [8].

As to `CN1C2CCCC1CC(O)(c1ccccc1)C2` (stereo not drawn), the T/C is, setting by setting: (dose: 12.5 mg/kg/injection, schedule: Q01DX001 (ip), vehicle: Klucel (hydroxypropylcellulose) (HPC)) 96 % of control; under setting [10], 99 % of control; under setting [11], 102 % of control.

Turning to `OCc1nc2cc(Cl)c(Cl)cc2[nH]1`, the T/C reads like this: under setting [1], 93 % of control; under setting [2], 96 % of control; under setting [3], 102 % of control.

`O=C1N(c2ccccc2)C(=O)N1c1ccccc1`: the T/C runs as follows: (dose: 100.0 mg/kg/injection, schedule: Q04DX003 (ip), vehicle: Klucel (hydroxypropylcellulose) (HPC)) 93 % of control; (dose: 200.0 mg/kg/injection, schedule: Q04DX003 (ip), vehicle: Klucel (hydroxypropylcellulose) (HPC)) 96 % of control.

Regarding `C1CN2CCOC2O1`, the T/C by setting is: (dose: 100.0 mg/kg/injection, schedule: Q01DX009 (ip), vehicle: saline) 101 % of control; (dose: 200.0 mg/kg/injection, schedule: Q01DX009 (ip), vehicle: saline) 108 % of control; (dose: 400.0 mg/kg/injection, schedule: Q01DX009 (ip), vehicle: saline) 100 % of control.

As for `C/C=C/C1N(C)CCCN1C`, the T/C (dose: 25.0 mg/kg/injection, schedule: Q01DX009 (ip), vehicle: saline with Tween-80) is 97 % of control; the T/C under setting [13] was 102 % of control; the T/C under setting [15] was 98 % of control; the T/C under setting [14] was 93 % of control; the T/C under setting [8] is 91 % of control.

Regarding `CCOC(=O)C(C)F` (stereo not drawn), the T/C is, setting by setting: under setting [4], 94 % of control; under setting [5], 89 % of control; under setting [6], 89 % of control.

Consider `CCC(C)C(C(=O)OC1CCN(CC)CC1)c1ccccc1` (stereo not drawn), for which the T/C under setting [12] was 94 % of control.

As to `COc1cc(OC(C)=O)c2ncccc2c1OC(C)=O`, the T/C under setting [1] is 94 % of control.

Turning to `O=c1oc(-c2ccc3c(c2)OCO3)nc2ccccc12`, the T/C under setting [15] is 94 % of control; the T/C (dose: 100.0 mg/kg/injection, schedule: Q01DX009 (ip), vehicle: saline with Tween-80) is 94 % of control; the T/C (dose: 200.0 mg/kg/injection, schedule: Q01DX009 (ip), vehicle: saline with Tween-80) is 94 % of control.

Regarding `COC(=O)c1[nH]c(=O)[nH]c(=O)c1F`, the T/C (dose: 1.0 mg/kg/injection, schedule: Q01DX009 (ip), vehicle: saline with Tween-80) was 103 % of control; the T/C (dose: 1.0 mg/kg/injection, schedule: Q01DX Z (ip), vehicle: methylcellulose (MC)) was 115 % of control; the T/C (dose: 2.0 mg/kg/injection, schedule: Q01DX009 (ip), vehicle: saline with Tween-80) was 110 % of control; the T/C (dose: 2.0 mg/kg/injection, schedule: Q01DX Z (ip), vehicle: carboxymethylcellulose (CMC)) was 118 % of control; the T/C (dose: 3.0 mg/kg/injection, schedule: Q01DX Z (ip), vehicle: carboxymethylcellulose (CMC)) is 124 % of control; the T/C (dose: 3.0 mg/kg/injection, schedule: Q01DX Z (ip), vehicle: methylcellulose (MC)) is 151 % of control. Also, the T/C runs as follows: (dose: 4.0 mg/kg/injection, schedule: Q01DX009 (ip), vehicle: saline with Tween-80) 123 % of control; (dose: 5.0 mg/kg/injection, schedule: Q01DX Z (ip), vehicle: carboxymethylcellulose (CMC)) 185 % of control; (dose: 6.0 mg/kg/injection, schedule: Q01DX Z (ip), vehicle: methylcellulose (MC)) 172 % of control; (dose: 8.0 mg/kg/injection, schedule: Q01DX009 (ip), vehicle: saline with Tween-80) 167 % of control; (dose: 8.0 mg/kg/injection, schedule: Q01DX Z (ip), vehicle: carboxymethylcellulose (CMC)) 150 % of control; (dose: 17.0 mg/kg/injection, schedule: Q01DX Z (ip), vehicle: carboxymethylcellulose (CMC)) 97 % of control. Besides, the T/C is 114 % of control (dose: 24.0 mg/kg/injection, schedule: Q01DX Z (ip), vehicle: methylcellulose (MC)); 120 % of control (dose: 25.0 mg/kg/injection, schedule: Q01DX Z (ip), vehicle: carboxymethylcellulose (CMC)); 92 % of control (dose: 32.0 mg/kg/injection, schedule: Q01DX009 (ip), vehicle: saline with Tween-80); 157 % of control (dose: 32.0 mg/kg/injection, schedule: Q04DX003 (ip), vehicle: saline with Tween-80); 101 % of control (dose: 38.0 mg/kg/injection, schedule: Q01DX Z (ip), vehicle: carboxymethylcellulose (CMC)); 114 % of control (dose: 48.0 mg/kg/injection, schedule: Q01DX Z (ip), vehicle: methylcellulose (MC)). Besides, the T/C (dose: 64.0 mg/kg/injection, schedule: Q04DX003 (ip), vehicle: saline with Tween-80) was 215 % of control and the T/C (dose: 90.0 mg/kg/injection, schedule: Q01DX Z (ip), vehicle: methylcellulose (MC)) was 91 % of control.
